# Test results from patent US20060241177A1, “Novel compounds, pharmaceutical compositions containing same, and methods of use for same” (priority 2002, published 2006).
# Columns and labels:
# [1] = system: MCF-7 human breast cancer cells; assay: [14C]acetate incorporation into total lipids (fatty acid synthesis in whole cells); format: cell-based; details: for 14C (IC50): MCF-7 cells; for IC50: Homo sapiens, MCF7, MCF-7 cells
# Procedure: Measurement of [^14C]Acetate Incorporation into Total Lipids and Determination of IC50 of Compounds
# This assay measures the incorporation of [^14C] acetate into total lipids and is a measure of fatty acid synthesis pathway activity in vitro. It is utilized to measure inhibition of fatty acid synthesis in vitro.
# MCF-7 human breast cancer cells cultured as above, are plated at 5×10^4 cells per well in 24-well plates. Following overnight incubation, the compounds to be tested, solubilized in DMSO, are added at 5, 10, and 20 μg/ml in triplicate, with lower concentrations tested if necessary. DMSO is added to triplicate wells for a vehicle control. C75 is run at 5 and 10 μg/ml in triplicate as positive controls. After 4 hours of incubation, 0.25 μCi of [^14C]acetate (10 μl volume) is added to each well.
# After 2 hours of additional incubation, medium is aspirated from the wells and 800 μl of chloroform:methanol (2:1) and 700 μl of 4 mM MgCl2 is added to each well. Contents of each well are transferred to 1.5 ml Eppendorf tubes, and spun at full-speed for 2 minutes in a high-speed Eppendorf Microcentrifuge 5415D. After removal of the aqueous (upper) layer, an additional 700 μl of chloroform:methanol (2:1) and 500 μl of 4 mM MgCl2 are added to each tube and then centrifuged for 1 minutes as above. The aqueous layer is removed with a Pasteur pipette and discarded. An additional 400 μl of chloroform:methanol (2:1) and 200 μl of 4 mM MgCl2 are added to each tube, then centrifuged and aqueous layer is discarded. The lower (organic) phase is transferred into a scintillation vial and dried at 40° C. under N2 gas. Once dried, 3 ml of scintillant (APB #NBC5104) is added and vials are counted for ^14C. The Beckman Scintillation counter calculates the average cpm values for triplicates.
# The IC50 for the compounds is defined as the concentration of drug leading to a 50% reduction in [^14C] acetate incorporation into lipids compared to controls. This is determined by plotting the average cpm for each inhibitor concentration tested, performing linear regression and computing the best-fit line, r^2 values, and 95% confidence intervals. The average cpm values are computed by the Beckman scintillation counter (model LS6500) for each compound concentration. Computation of linear regression, best-fit line, r^2, and 95% confidence intervals are calculated using Prism Version 3.0 (Graph Pad Software).
# [2] = Weight loss screen in Balb/C mice; format: in vivo
# Procedure: Weight Loss Screen for Novel FAS Inhibitors
# Balb/C mice (Jackson Labs) are utilized for the initial weight loss screening. Animals are housed in temperature and 12 hour day/night cycle rooms and fed mouse chow and water ad lib. Three mice are utilized for each compound tested with vehicle controls in triplicate per experiment. For the experiments, mice are housed separately for each compound tested three mice to a cage. Compounds are diluted in DMSO at 10 mg/ml when given at a dose of 30 mg/kg, and 30 mg/ml when given at a dose of 60 mg/kg, and mice are injected intraperitoneally with 60 mg/kg in approximately 100 μl of DMSO or with vehicle alone. Mice are observed and weighed daily; average weights and standard errors are computed with Excel (Microsoft). The experiment continues until treated animals reach their pretreatment weights. Select compounds are tested in animals housed in metabolic cages.
# Dosing of animals are identical to the screening experiments with three animals to a single metabolic cage. Animal weights, water and food consumption, and urine and feces production are measured daily. Three lean Balb/C mice (Harlan) maintained on mouse chow, are treated with compounds at doses indicated on day 0 or with vehicle (DMSO) control of equal volume. Compound 6 was solubilized in 40 μl DMSO while Compound 8 was solubilized in 60 μl DMSO. All were injected intraperitoneally. Weights were measured on days indicated. Error bars represent standard error of the mean.
# [3] = 30 mg/kg i.p., day 1, three Balb/C mice per compound
compound,measurement,setting,value
C=CCNC(=O)[C@H]1[C@H](CCCCCCCC)OC(=O)[C@@H]1C (racemic),14C (IC50),[1],Neg
C=C1C(=O)O[C@@H](CCCCCCCC)[C@@H]1C(=O)NCCO (racemic),IC50,[1],2.3 ± 1.3 µg/mL
C=CCNC(=O)[C@@H]1C(=C)C(=O)O[C@H]1CCCC (racemic),IC50,[1],1.8 ± 0.3 µg/mL
same,Deaths in weight loss screen,"[2]; 30 mg/kg i.p., day 2, three Balb/C mice per compound",3 of 3 dead
C=CCNC(=O)[C@@H]1C(=C)C(=O)O[C@H]1CCCCCCCC (racemic),IC50,[1],0.75 ± 0.4 µg/mL
same,Deaths in weight loss screen,"[2]; 60 mg/kg i.p., day 3, three Balb/C mice per compound",3 of 3 dead
C=CCNC(=O)[C@@H]1C(=C)C(=O)O[C@H]1CCCCCC (racemic),IC50,[1],3.3 µg/mL
same,Deaths in weight loss screen,[2]; [3],1 of 3 dead
CCCCCCCCC1OC(=O)[C@@H](C)[C@H]1C(=O)O (stereo partly drawn),IC50,[1],31 µg/mL
C=CCNC(=O)C1=C(C)C(=O)O[C@H]1CCCCCCCC,14C (IC50),[1],Neg (stim)
C=CCNC(=O)[C@H]1[C@H](CCCCCCCC)OC(=O)[C@H]1C (racemic),IC50,[1],25.7 µg/mL
C=C1C(=O)O[C@@H](CCCCCCCC)[C@@H]1C(=O)NCC(=O)O (racemic),Deaths in weight loss screen,"[2]; 30 mg/kg i.p., day 6, three Balb/C mice per compound",1 death
CCCCCCCCC1OC(=O)[C@H](C)[C@H]1C(=O)O (stereo partly drawn),14C (IC50),[1],Neg
C=C1C(=O)O[C@@H](CCCCCCCC)[C@@H]1C(=O)NCC(=O)OC (racemic),IC50,[1],1.1 ± 0.03 µg/mL
same,Deaths in weight loss screen,[2]; [3],3 of 3 dead
